For eight compounds, IC50 results are on record in US20220402950A1, “SUBSTITUTED BENZIMIDAZOLES AS PAD4 INHIBITORS” (BRISTOL-MYERS SQUIBB COMPANY, priority 2018, published 2022).

Molecules are shown by their SMILES.

Sequence of human PAD4 (hPAD4) (Q9UM07 whole entry): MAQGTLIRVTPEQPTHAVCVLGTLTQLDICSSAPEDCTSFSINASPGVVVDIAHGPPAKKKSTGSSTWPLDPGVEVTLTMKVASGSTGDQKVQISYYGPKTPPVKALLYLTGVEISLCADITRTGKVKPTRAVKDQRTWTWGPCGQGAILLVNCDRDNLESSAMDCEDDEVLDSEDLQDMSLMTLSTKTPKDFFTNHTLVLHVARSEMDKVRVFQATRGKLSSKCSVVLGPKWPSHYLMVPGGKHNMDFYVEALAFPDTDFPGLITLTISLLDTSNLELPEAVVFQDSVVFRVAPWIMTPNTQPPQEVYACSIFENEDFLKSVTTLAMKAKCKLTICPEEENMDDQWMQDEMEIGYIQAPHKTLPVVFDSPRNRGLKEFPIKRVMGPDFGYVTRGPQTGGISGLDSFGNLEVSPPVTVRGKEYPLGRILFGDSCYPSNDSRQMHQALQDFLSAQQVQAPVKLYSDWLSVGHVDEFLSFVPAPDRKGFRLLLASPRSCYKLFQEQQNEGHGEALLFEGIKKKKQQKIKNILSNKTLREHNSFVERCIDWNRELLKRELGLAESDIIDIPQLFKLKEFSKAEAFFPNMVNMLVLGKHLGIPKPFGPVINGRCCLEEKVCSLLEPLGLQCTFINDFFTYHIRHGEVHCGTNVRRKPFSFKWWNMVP

The test concerns the target human PAD4 (hPAD4) (Homo sapiens, UniProt Q9UM07). Nature of the test: RFMS Human PAD4 Functional Assay. It is filed as biochemical. The note with it: hPAD4 RFMS IC50, human PAD4, rapid-fire mass spectrum (RFMS) assay; 5 nM hPAD4, 250 μM BAEE. The essentials: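 RapidFire ESI-MS quantification, normalised to a modified-citrulline internal standard, after phenyl glyoxal (final 4 mM) derivatisation of the TCA-quenched reaction. The enzyme (10 nM) sat 30 min with compound (up to 50 μM final) before 500 μM BAEE (as added) started a 90 min, 37 °C reaction. Buffer: HEPES pH 7.5, 50 μM calcium, 5 μM TPEN.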
By IC50 is commonly meant the concentration needed to halve the response being measured. Lower therefore signals greater potency. In the case of `COCC(=O)N1CCC(c2cccc3cc(-c4nc5cc(C(=O)N6C[C@H](N)C[C@@H](F)C6)cc(OC)c5n4C)n(CC4CC4)c23)CC1` [Example 226, 1-(4-(2-(5-((3R,5R)-3-amino-5-fluoropiperidine-1-carbonyl)-7-methoxy-1-methyl-1H-benzo[d]imidazol-2-yl)-1-(cyclopropylmethyl)-1H-indol-7-yl)piperidin-1-yl)-2-methoxyethan-1-one], half-maximal inhibition (IC50) required 53 nM.
Then `COc1cc(C(=O)N2C[C@H](N)C[C@@H](F)C2)cc2nc(-c3cc4cccc(C5CCN(C(C)=O)CC5)c4n3CC3CC3)n(C)c12` [Example 227, 1-(4-(2-(5-((3R,5R)-3-amino-5-fluoropiperidine-1-carbonyl)-7-methoxy-1-methyl-1H-benzo[d]imidazol-2-yl)-1-(cyclopropylmethyl)-1H-indol-7-yl)piperidin-1-yl)ethan-1-one], with 77 nM.
Then `COc1cc(C(=O)N2C[C@H]3CC[C@@H]2[C@@H]3N)cc2nc(-c3cc4cccc(C5CN(C(=O)Nc6ccccc6)C5)c4n3CC3CC3)n(C)c12` [Example 228, 3-(2-(5-((1R,4R,7R)-7-amino-2-azabicyclo[2.2.1]heptane-2-carbonyl)-7-methoxy-1-methyl-1H-benzo[d]imidazol-2-yl)-1-(cyclopropylmethyl)-1H-indol-7-yl)-N-phenylazetidine-1-carboxamide], with 41 nM; and `COc1cc(C(=O)N2C[C@H]3CC[C@@H]2[C@@H]3N)cc2nc(-c3cc4cccc(C5CN(C(=O)Nc6ccc(F)cc6)C5)c4n3CC3CC3)n(C)c12` [Example 229, 3-(2-(5-((1R,4R,7R)-7-amino-2-azabicyclo[2.2.1]heptane-2-carbonyl)-7-methoxy-1-methyl-1H-benzo[d]imidazol-2-yl)-1-(cyclopropylmethyl)-1H-indol-7-yl)-N-(4-fluorophenyl)azetidine-1-carboxamide], with 13 nM.
Then `COCC(=O)N1CCC(c2cccc3cc(-c4nc5cc(C(=O)N6C[C@H]7CC[C@@H]6[C@@H]7N)cc(OC)c5n4C)n(CC4CC4)c23)CC1` [Example 230, 1-(4-(2-(5-((1R,4R,7R)-7-amino-2-azabicyclo[2.2.1]heptane-2-carbonyl)-7-methoxy-1-methyl-1H-benzo[d]imidazol-2-yl)-1-(cyclopropylmethyl)-1H-indol-7-yl)piperidin-1-yl)-2-methoxyethan-1-one], with 21 nM; and `COc1cc(C(=O)N2C[C@H]3CC[C@@H]2[C@@H]3N)cc2nc(-c3cc4cccc(C5CCN(C(=O)CC#N)CC5)c4n3CC3CC3)n(C)c12` [Example 231, 3-(4-(2-(5-((1R,4R,7R)-7-amino-2-azabicyclo[2.2.1]heptane-2-carbonyl)-7-methoxy-1-methyl-1H-benzo[d]imidazol-2-yl)-1-(cyclopropylmethyl)-1H-indol-7-yl)piperidin-1-yl)-3-oxopropanenitrile], with 66 nM; and `COc1cc(C(=O)N2C[C@H]3CC[C@@H]2[C@@H]3N)cc2nc(-c3cc4cccc(C5CCN(C(=O)COCC(F)(F)F)CC5)c4n3CC3CC3)n(C)c12` [Example 232, 1-(4-(2-(5-((1R,4R,7R)-7-amino-2-azabicyclo[2.2.1]heptane-2-carbonyl)-7-methoxy-1-methyl-1H-benzo[d]imidazol-2-yl)-1-(cyclopropylmethyl)-1H-indol-7-yl)piperidin-1-yl)-2-(2,2,2-trifluoroethoxy)ethan-1-one], with 19 nM.
As for `COc1cc(C(=O)N2C[C@H]3CC[C@@H]2[C@@H]3N)cc2nc(-c3cc4cccc(C5CCN(C(=O)C(OC)C6CC6)CC5)c4n3CC3CC3)n(C)c12` (stereo partly drawn) [Example 233, 1-(4-(2-(5-((1R,4R,7R)-7-amino-2-azabicyclo[2.2.1]heptane-2-carbonyl)-7-methoxy-1-methyl-1H-benzo[d]imidazol-2-yl)-1-(cyclopropylmethyl)-1H-indol-7-yl)piperidin-1-yl)-2-cyclopropyl-2-methoxyethan-1-one], the IC50 was 63 nM.
